Patent US11952368B2, “FAPI dimer compound, FAPI dimer-based positron emission tomography (PET) imaging agent for tumor diagnosis, and preparation method and use thereof” (XIAMEN UNIVERSITY, priority 2021, dated 2024)

Tests used:
[1] = Distribution, dosimetry and safety in healthy volunteers (PET/CT, OLINDA/EXM); type: in vivo, human
Procedure: This experiment was approved by the Clinical Research Ethics Committee of the First Affiliated Hospital of Xiamen University, and all subjects signed a written informed consent form. A dose of ^68Ga-2PEG(3)-FAPI-dimer for intravenous injection (1.8 MBq to 2.2 MBq [0.05 mCi to 0.06 mCi]/kg) was calculated according to a body weight of a subject. Data were acquired using a hybrid PET/CT scanner (Discovery MI, GE Healthcare, Milwaukee, WI, USA) at 10 min, 30 min, 60 min, and 180 min after intravenous injection. A maximum standard uptake value (SUVmax) was automatically calculated with ROIs drawn on a transaxial image. Safety data, including vital signs (blood pressure, pulse, respiratory rate, and body temperature) and adverse events, were acquired 4 h before and after the ^68Ga-2PEG(3)-FAPI-dimer was injected. […] The time-activity curve fitting and subsequent dose calculation were conducted using OLINDA/EXM v.1.1.

[2] = system: lesions in the three cancer patients; assay: PET/CT in tumor patients (NPC, thyroid cancer, HCC), SUVmax of lesions; type: in vivo, human
Procedure: This experiment was approved by the Clinical Research Ethics Committee of the First Affiliated Hospital of Xiamen University, and all subjects signed a written informed consent form. Doses of ^68Ga-FAPI-46 and ^68Ga-2PEG(3)-FAPI-dimer for intravenous injection (1.8 MBq to 2.2 MBq [0.05 mCi to 0.06 mCi]/kg) were calculated according to a body weight of a patient. A cancer patient was administered with ^68Ga-2PEG(3)-FAPI-dimer and ^68Ga-FAPI-46 at an interval of 3 d. Data were acquired using a hybrid PET/CT scanner (Discovery MI, GE Healthcare, Milwaukee, WI, USA). A PET/CT image was acquired at 60 min after intravenous injection (a thyroid cancer patient was scanned twice at 60 min and 240 min after injection). A maximum standard uptake value (SUVmax) was automatically calculated with ROIs drawn on a transaxial image. PET/CT scanning was conducted at 60 min after the three patients were intravenously administered with ^68Ga-FAPI-46 and ^68Ga-2PEG(3)-FAPI-dimer, including a nasopharyngeal carcinoma (NPC) patient (non-keratinizing undifferentiated carcinoma, immunotherapy was conducted when the widespread bone metastasis occurred after chemoradiotherapy), a thyroid cancer patient (multiple cycles of radioactive iodine therapy were conducted after papillary thyroid carcinoma (PTC), total thyroidectomy, and lymph node dissection), and an HCC patient (untreated at preliminary diagnosis). The comparison of ^68Ga-FAPI-46 and ^68Ga-2PEG(3)-FAPI-dimer uptake among lesions in the three cancer patients was shown in Table 3.

[3] = system: HCC-PDX-2; assay: PET imaging in HCC-PDX-2 model; type: in vivo, mouse; conditions: HCC-PDX-2, 7.4 MBq via tail vein
Procedure: The PET imaging and biodistribution studies were conducted in HCC-PDX1 and HCC-PDX2 mouse models. The histological verification was first conducted, where the immunohistochemical staining and H&E staining were conducted for FAP and Ki67, a tumor tissue was digested for protein extraction, and the expression of FAP was detected by Western Blot. Verification results were shown in FIG. 6A-B, where the immunohistochemical staining result was shown in FIG. 6A and the Western Blot result was shown in FIG. 6B. […] Therefore, the models can be used for further mouse experiments.
The products of ^68Ga-2PEG(3)-FAPI-dimer and ^68Ga-FAPI-46 were each diluted to a concentration of 74 MBq/mL. 7.4 MBq of ^68Ga-2PEG(3)-FAPI-dimer or 7.4 MBq of ^68Ga-FAPI-46 was injected into the HCC-PDX model through the tail vein (3 parallel experiments per group). All PET scans were conducted with an Inveon small animal PET scanner (Siemens Preclinical Solution, USA). The dynamic PET imaging was conducted with a scan duration of 60 min and reconstructed frames of 10×30 s, 10×60 s, 10×120 s, and 9×160 s. The 10 min static PET imaging was conducted with acquisition time points of 0.5 h, 1 h, 2 h, and 4 h after injection. […] Region of interests (ROIs) in the tumor, liver, heart, kidney, and muscle were calculated on PET images to quantify radioactive signals.

[4] = three healthy volunteers, i.v., OLINDA/EXM
[5] = Patient 1 (NPC), PET/CT 60 min after i.v. injection
[6] = Patient 2 (Thyroid cancer), PET/CT 60 min after i.v. injection

Q: Which results are given for CN(CCCN1CCN(C(=O)COCCOCCOCCNC(=O)CCC(=O)N[C@@H](CCCCNC(=O)CN2CCN(CC(=O)[O-])CCN(CC(=O)[O-])CCN(CC(=O)[O-])CC2)C(=O)NCCOCCOCCOCC(=O)N2CCN(CCCN(C)c3ccc4nccc(C(=O)NCC(=O)N5CC(F)(F)C[C@H]5C#N)c4c3)CC2)CC1)c1ccc2nccc(C(=O)NCC(=O)N3CC(F)(F)C[C@H]3C#N)c2c1.[68Ga+3] [^68Ga-2PEG(3)-FAPI-dimer]?
A: discomfort symptoms after injection (vital signs, adverse events) ([1]; i.v. 1.8 MBq to 2.2 MBq/kg, 4 h before and after injection): did not undergo any discomfort symptoms; Average value, Adrenal gland (dosimetry) [1, 4]: 7.98E−05 mSv/MBq; Average value, Ascending colon wall (dosimetry) [1, 4]: 2.79E−05 mSv/MBq; Average value, Bladder wall (dosimetry) [1, 4]: 1.04E−03 mSv/MBq; Average value, Brain (dosimetry) [1, 4]: 3.16E−05 mSv/MBq; Average value, Breast (dosimetry) [1, 4]: 6.36E−05 mSv/MBq; Average value, Descending colon wall (dosimetry) [1, 4]: 9.22E−04 mSv/MBq; Average value, Effective dose [1, 4]: 1.19E−02 mSv/MBq; Average value, Effective dose equivalent [1, 4]: 1.69E−02 mSv/MBq; Average value, Kidney (dosimetry) [1, 4]: 1.01E−04 mSv/MBq; Average value, Liver (dosimetry) [1, 4]: 1.65E−03 mSv/MBq; Average value, Lung (dosimetry) [1, 4]: 1.36E−03 mSv/MBq; Average value, Muscle (dosimetry) [1, 4]: 4.19E−05 mSv/MBq; Average value, Osteoblast (dosimetry) [1, 4]: 6.47E−05 mSv/MBq; Average value, Ovary (dosimetry) [1, 4]: 5.94E−04 mSv/MBq; Average value, Pancreas (dosimetry) [1, 4]: 7.61E−04 mSv/MBq; Average value, Red bone marrow (dosimetry) [1, 4]: 1.12E−03 mSv/MBq; Average value, Skin (dosimetry) [1, 4]: 1.22E−05 mSv/MBq; Average value, Small intestine (dosimetry) [1, 4]: 5.18E−05 mSv/MBq; Average value, Spleen (dosimetry) [1, 4]: 1.58E−04 mSv/MBq; Average value, Stomach wall (dosimetry) [1, 4]: 7.12E−04 mSv/MBq; Average value, Thymus (dosimetry) [1, 4]: 9.64E−06 mSv/MBq; Average value, Thyroid (dosimetry) [1, 4]: 3.11E−03 mSv/MBq; Average value, Uterus (dosimetry) [1, 4]: 1.27E−05 mSv/MBq; SUVmax, Bone metastasis 1 [2, 5]: 17.8; SUVmax, Bone metastasis 2 [2, 5]: 27.5; SUVmax, Bone metastasis 3 [2, 5]: 27.4; SUVmax, Bone metastasis 4 [2, 5]: 25.1; SUVmax, Bone metastasis 5 [2, 5]: 29.8; SUVmax, Bone metastasis 6 [2, 5]: 20.8; SUVmax, Bone metastasis 7 [2, 5]: 17.2; SUVmax, Bone metastasis 8 [2, 5]: 22.1; SUVmax, Bone metastasis 10 [2, 5]: 23.3; SUVmax, Axillary lymph node 1 [2, 6]: 23.2; SUVmax, Axillary lymph node 2 [2, 6]: 33.2; SUVmax, Axillary lymph node 3 [2, 6]: 28.9; SUVmax, Bone metastasis 1 [2, 6]: 26.4; SUVmax, Cervical lymph node 1 [2, 6]: 32.8; SUVmax, Cervical lymph node 2 [2, 6]: 8.1; SUVmax, Hilar lymph node 1 [2, 6]: 18.1; SUVmax, Mediastinal lymph node 1 [2, 6]: 24.6; SUVmax, Supraclavicular lymph node 1 [2, 6]: 39.0; SUVmax, Supraclavicular lymph node 2 [2, 6]: 24.1; SUVmax, Primary tumor ([2]; Patient 3 (HCC), tumor with low FAP expression, PET/CT 60 min after i.v. injection): 9.8; uptake compared with ^68Ga-FAPI-46 in the comparative analysis of single lesions ([2]; three cancer patients, Table 3): significantly higher; uptake in normal organs ([3]; PET): low and decline rapidly; uptake and residence in tumor tissue compared with ^68Ga-FAPI-46 ([3]; PET 0.5 h, 1 h, 2 h, 4 h): better than
